The values below come from patent US7449292B2, “Methods for predicting relative efficacy of a beta blocker therapy based on a B1-adrenergic receptor polymorphism” (University of Cincinnati, priority 2003, dated 2008).

The subject of the test is cardiac β1-AR (position 389 genotype). The format is in vivo, human. As to conditions: Gly389/Arg389 heterozygous heart failure patients; difference before vs after >6 months on a stable dose. The method, then:
The study was approved by the University of Cincinnati Institutional Review Board and the patients gave informed consent. […] LVEF was determined by radionuclide ventriculography before initiation of drug treatment and after a maintenance period of >6 months on a stable dose. The change in LVEF was reported as the difference between values before and after drug treatment.

Each structure is given as a SMILES string.

Consider `COc1ccccc1OCCNCC(O)COc1cccc2[nH]c3ccccc3c12` (stereo not shown) [carvedilol], for which the “improvement in LVEF” value is “improvement similar to that of Arg389-homozygous patients”.
